Where two headings read alike, the source gives them in different places.
What was measured:
[1] = molecular target: T1, recombinant human GBA (beta-glucocerebrosidase) (Homo sapiens, UniProt P04062); assay: Beta-glucocerebrosidase (GBA, glucosylceramidase) assay (4-methylumbelliferyl-beta-D-pyranoside substrate, fluorescence); type: biochemical
T1 sequence (P04062 40-536): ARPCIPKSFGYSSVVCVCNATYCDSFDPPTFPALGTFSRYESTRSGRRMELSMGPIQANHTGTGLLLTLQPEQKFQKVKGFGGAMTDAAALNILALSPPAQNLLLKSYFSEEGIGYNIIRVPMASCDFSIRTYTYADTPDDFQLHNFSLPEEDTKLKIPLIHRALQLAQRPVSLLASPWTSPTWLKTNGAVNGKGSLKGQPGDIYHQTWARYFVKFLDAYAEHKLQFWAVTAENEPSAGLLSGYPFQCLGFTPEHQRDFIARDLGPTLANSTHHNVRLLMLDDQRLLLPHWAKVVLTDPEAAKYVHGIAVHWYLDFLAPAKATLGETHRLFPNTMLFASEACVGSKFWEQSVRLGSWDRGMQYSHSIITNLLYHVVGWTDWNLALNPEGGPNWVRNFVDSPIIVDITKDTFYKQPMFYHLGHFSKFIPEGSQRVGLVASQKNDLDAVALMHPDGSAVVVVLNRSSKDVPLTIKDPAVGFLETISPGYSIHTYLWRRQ
Protocol: Beta-glucocerebrosidase (GBA, also referred to glucosylceramidase): To analyze inhibitory effects of a test compound, commercially available recombinant human GBA was incubated with multiple dilutions of test compound for 60 minutes at 37° C. 4-methylumbelliferyl-beta-D-pyranoside was then introduced to the mixture as substrate. Following incubation for 60 minutes at 37° C., 1,4-methyllumbelliferone was generated, and the reaction was stopped with the stop solution (0.5 M glycine; 0.3 M NaOH, pH 10). 1,4-methyllumbelliferone was detected by fluorescence (excitation at 365 nm, emission at 440 nm). Relative fluorescence compared to untreated enzymatic activity and test compound concentration is then plotted as a function of percent inhibition. The IC50 was determined using a 4-PL curve fit as the measure of relative inhibitory activity of each test compound (see Table 3).

[2] = molecular target: T2, recombinant alpha-glucosidase II (murine full-length glucosidase II, alpha and beta subunits, Glu 2) (Mus musculus, UniProt Q8BHN3); assay: Alpha-glucosidase II assay (4-methylumbelliferyl-alpha-D-pyranoside substrate, fluorescence); type: biochemical
T2 construct: made in house; host or cells: HEK-293T cells transduced with BacMam viruses (75% alpha, 25% beta); protein harvested from culture supernatant
T2 sequence (O08795 15-521): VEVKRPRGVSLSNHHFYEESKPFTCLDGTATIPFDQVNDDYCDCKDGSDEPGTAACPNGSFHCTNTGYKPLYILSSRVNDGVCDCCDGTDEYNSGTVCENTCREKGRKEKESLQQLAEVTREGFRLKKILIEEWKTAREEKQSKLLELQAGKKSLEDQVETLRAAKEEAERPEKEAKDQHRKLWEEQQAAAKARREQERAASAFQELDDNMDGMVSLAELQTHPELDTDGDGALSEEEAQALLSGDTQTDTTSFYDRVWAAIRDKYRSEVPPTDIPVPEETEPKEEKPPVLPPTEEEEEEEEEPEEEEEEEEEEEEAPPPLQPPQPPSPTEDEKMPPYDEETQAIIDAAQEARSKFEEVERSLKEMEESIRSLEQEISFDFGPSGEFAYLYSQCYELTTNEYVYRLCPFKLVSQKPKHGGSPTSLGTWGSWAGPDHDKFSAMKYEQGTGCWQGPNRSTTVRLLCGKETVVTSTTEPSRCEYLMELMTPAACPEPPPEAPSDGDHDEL
T2 sequence (Q8BHN3 33-944): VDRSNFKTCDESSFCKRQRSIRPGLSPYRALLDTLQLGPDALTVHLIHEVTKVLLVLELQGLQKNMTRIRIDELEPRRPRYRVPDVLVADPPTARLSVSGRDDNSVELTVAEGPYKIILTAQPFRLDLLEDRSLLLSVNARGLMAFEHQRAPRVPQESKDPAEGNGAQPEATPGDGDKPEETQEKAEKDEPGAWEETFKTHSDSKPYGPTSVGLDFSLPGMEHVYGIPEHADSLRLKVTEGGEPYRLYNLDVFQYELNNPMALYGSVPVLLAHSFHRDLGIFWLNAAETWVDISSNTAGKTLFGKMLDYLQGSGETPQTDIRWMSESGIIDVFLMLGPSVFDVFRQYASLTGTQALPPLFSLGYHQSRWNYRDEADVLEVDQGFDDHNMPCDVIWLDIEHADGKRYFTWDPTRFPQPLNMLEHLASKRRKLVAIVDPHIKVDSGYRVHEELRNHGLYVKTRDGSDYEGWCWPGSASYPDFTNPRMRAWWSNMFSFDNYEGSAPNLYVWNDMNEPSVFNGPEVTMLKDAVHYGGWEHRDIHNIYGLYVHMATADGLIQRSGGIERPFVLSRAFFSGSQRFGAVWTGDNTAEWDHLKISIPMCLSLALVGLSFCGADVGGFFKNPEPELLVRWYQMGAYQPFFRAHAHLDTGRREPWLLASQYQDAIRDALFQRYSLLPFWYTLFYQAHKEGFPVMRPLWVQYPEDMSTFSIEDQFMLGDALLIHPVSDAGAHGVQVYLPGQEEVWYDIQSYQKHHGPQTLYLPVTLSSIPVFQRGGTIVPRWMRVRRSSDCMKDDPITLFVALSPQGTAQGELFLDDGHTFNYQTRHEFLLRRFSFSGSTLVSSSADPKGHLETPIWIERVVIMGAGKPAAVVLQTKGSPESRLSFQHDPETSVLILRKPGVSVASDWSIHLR

[3] = Glucosidase 2, read-out: Glu2 IC50

| SMILES | IC50 [1] | IC50 [2, 3] | IC50 [2] |
| --- | --- | --- | --- |
| O=Cc1cc(NCCCCCCN2C[C@H](O)[C@@H](O)[C@H](O)[C@H]2CO)cc(-c2ncccn2)c1 [Compound 1129, 3-(pyrimidin-2-yl)-5-({6-[(2R,3R,4R,5S)-3,4,5-trihydroxy-2-(hydroxymethyl)piperidin-1-yl]hexyl}amino)benzaldehyde] | 2730 nM | 7 nM |  |
| CCCc1nc(-c2cc(Cl)cc(NCCc3ccc(CCN4C[C@H](O)[C@@H](O)[C@H](O)[C@H]4CO)cc3)c2)no1 [Compound 1123, (2R,3R,4R,5S)-1-{2-[4-(2-{[3-chloro-5-(5-propyl-1,2,4-oxadiazol-3-yl)phenyl]amino}ethyl)phenyl]ethyl}-2-(hydroxymethyl)piperidine-3,4,5-triol] | 627 nM | 329 nM |  |
| O=[N+]([O-])c1cc(-c2ccccc2)ccc1NCCCCCCN1C[C@H](O)[C@@H](O)[C@H](O)[C@H]1CO [Compound 1138, (2R,3R,4R,5S)-2-(hydroxymethyl)-1-[6-({3-nitro-[1,1′-biphenyl]-4-yl}amino)hexyl]piperidine-3,4,5-triol] | 18 nM |  | 2 nM |
| O=[N+]([O-])c1cc(CCO)ccc1NCCCCCCN1C[C@H](O)[C@@H](O)[C@H](O)[C@H]1CO [Compound 1292, (2R,3R,4R,5S)-1-(6-{[4-(2-hydroxyethyl)-2-nitrophenyl]amino}hexyl)-2-(hydroxymethyl)piperidine-3,4,5-triol] | 1600 nM | 8.6 nM |  |
| [N-]=[N+]=Nc1ccc(NCCc2cc(Br)cc(CCN3C[C@H](O)[C@@H](O)[C@H](O)[C@H]3CO)c2)c([N+](=O)[O-])c1 [Compound 1140, (2R,3R,4R,5S)-1-[2-(3-{2-[(4-azido-2-nitrophenyl)amino]ethyl}-5-bromophenyl)ethyl]-2-(hydroxymethyl)piperidine-3,4,5-triol] | 674 nM | 45 nM |  |
| [N-]=[N+]=Nc1ccc(NCc2cc(CCN3C[C@H](O)[C@@H](O)[C@H](O)[C@H]3CO)cs2)c([N+](=O)[O-])c1 [Compound 1174, (2R,3R,4R,5S)-1-[2-(5-{[(4-azido-2-nitrophenyl)amino]methyl}thiophen-3-yl)ethyl]-2-(hydroxymethyl)piperidine-3,4,5-triol] | 805 nM | < 1 nM |  |
| [N-]=[N+]=Nc1ccc(NCCc2cnn(CCN3C[C@H](O)[C@@H](O)[C@H](O)[C@H]3CO)c2)c([N+](=O)[O-])c1 [Compound 1191, (2R,3R,4R,5S)-1-[2-(4-{2-[(4-azido-2-nitrophenyl)amino]ethyl}-1H-pyrazol-1-yl)ethyl]-2-(hydroxymethyl)piperidine-3,4,5-triol] | 28600 nM | 20300 nM |  |
| OC[C@@H]1[C@@H](O)[C@H](O)[C@@H](O)CN1CCCCCCNc1ccc(-c2ncco2)cc1Cl [Compound 1203, (2R,3R,4R,5S)-1-(6-{[2-chloro-4-(1,3-oxazol-2-yl)phenyl]amino}hexyl)-2-(hydroxymethyl)piperidine-3,4,5-triol] | 787 nM | < 1 nM |  |
| COc1cc(-c2cnccn2)ccc1NCCCCCCN1C[C@H](O)[C@@H](O)[C@H](O)[C@H]1CO [Compound 1199, (2R,3R,4R,5S)-2-(hydroxymethyl)-1-(6-{[2-methoxy-4-(pyrazin-2-yl)phenyl]amino}hexyl)piperidine-3,4,5-triol] | 3960 nM | 12 nM |  |
| [N-]=[N+]=Nc1ccc(NCCn2cc(CCN3C[C@H](O)[C@@H](O)[C@H](O)[C@H]3CO)c3ccccc32)c([N+](=O)[O-])c1 [Compound 1177, (2R,3R,4R,5S)-1-[2-(1-{2-[(4-azido-2-nitrophenyl)amino]ethyl}-1H-indol-3-yl)ethyl]-2-(hydroxymethyl)piperidine-3,4,5-triol] | 3320 nM | 65 nM |  |
| Cc1nc2cc(-c3ncccn3)ccc2n1CCCCCCN1C[C@H](O)[C@@H](O)[C@H](O)[C@H]1CO [Compound 1339, (2R,3R,4R,5S)-2-(hydroxymethyl)-1-{6-[2-methyl-5-(pyrimidin-2-yl)-1H-1,3-benzodiazol-1-yl]hexyl}piperidine-3,4,5-triol] | 626 nM | 194 nM |  |
| COc1cc(Cc2ccccc2)cc(NCCCCCCN2C[C@H](O)[C@@H](O)[C@H](O)[C@H]2CO)c1 [Compound 1145, (2R,3R,4R,5S)-1-{6-[(3-benzyl-5-methoxyphenyl)amino]hexyl}-2-(hydroxymethyl)piperidine-3,4,5-triol] | 458 nM | < 1 nM |  |
| COc1cc(-c2ncco2)ccc1NCCCCCCN1C[C@H](O)[C@@H](O)[C@H](O)[C@H]1CO [Compound 1207, (2R,3R,4R,5S)-2-(hydroxymethyl)-1-(6-{[2-methoxy-4-(1,3-oxazol-2-yl)phenyl]amino}hexyl)piperidine-3,4,5-triol] | 1680 nM | 14 nM |  |
| Cc1cc(-c2ccco2)ccc1NCc1ccc(CN2C[C@H](O)[C@@H](O)[C@H](O)[C@H]2CO)cc1 [Compound 1324, (2R,3R,4R,5S)-1-{[4-({[4-(furan-2-yl)-2-methylphenyl]amino}methyl)phenyl]methyl}-2-(hydroxymethyl)piperidine-3,4,5-triol] | 33700 nM | 318 nM |  |
| OC[C@@H]1[C@@H](O)[C@H](O)[C@@H](O)CN1CCCCCCNc1cc(-c2ncccn2)cc(C(F)(F)F)c1 [Compound 1131, (2R,3R,4R,5S)-2-(hydroxymethyl)-1-(6-{[3-(pyrimidin-2-yl)-5-(trifluoromethyl)phenyl]amino}hexyl)piperidine-3,4,5-triol] | 308 nM | 3 nM |  |
| O=[N+]([O-])c1cc(C2CC2)ccc1NCCCCCCN1C[C@H](O)[C@@H](O)[C@H](O)[C@H]1CO [Compound 1136, (2R,3R,4R,5S)-1-{6-[(4-cyclopropyl-2-nitrophenyl)amino]hexyl}-2-(hydroxymethyl)piperidine-3,4,5-triol] | 37 nM | 1 nM |  |
| COc1cc(NCCCCCCN2C[C@H](O)[C@@H](O)[C@H](O)[C@H]2CO)cc(C2CCCO2)c1 (stereo partly drawn) [Compound 1146, (2R,3R,4R,5S)-2-(hydroxymethyl)-1-(6-{[3-methoxy-5-(oxolan-2-yl)phenyl]amino}hexyl)piperidine-3,4,5-triol] | 2170 nM | 15 nM |  |
| COc1cc(NCCCCCCN2C[C@H](O)[C@@H](O)[C@H](O)[C@H]2CO)cc(-c2ccccc2)c1 [Compound 1150, (2R,3R,4R,5S)-2-(hydroxymethyl)-1-[6-({5-methoxy-[1,1′-biphenyl]-3-yl}amino)hexyl]piperidine-3,4,5-triol] | 193 nM | < 1 nM |  |
| [N-]=[N+]=Nc1ccc(NCCc2ccc(CCN3C[C@H](O)[C@@H](O)[C@H](O)[C@H]3CO)c3c2OCCO3)c([N+](=O)[O-])c1 [Compound 1173, (2R,3R,4R,5S)-1-[2-(8-{2-[(4-azido-2-nitrophenyl)amino]ethyl}-2,3-dihydro-1,4-benzodioxin-5-yl)ethyl]-2-(hydroxymethyl)piperidine-3,4,5-triol] | 5320 nM | 666 nM |  |
| COc1cc(CC2CCOC2)cc(NCCCCCCN2C[C@H](O)[C@@H](O)[C@H](O)[C@H]2CO)c1 (stereo partly drawn) [Compound 1141, (2R,3R,4R,5S)-2-(hydroxymethyl)-1-[6-({3-methoxy-5-[(oxolan-3-yl)methyl]phenyl}amino)hexyl]piperidine-3,4,5-triol] | 8060 nM | 139 nM |  |
| C[C@@H]1CN(c2ccc(NCc3ccc(CN4C[C@H](O)[C@@H](O)[C@H](O)[C@H]4CO)cc3)c([N+](=O)[O-])c2)C[C@H](C)O1 [Compound 1014] | > 100000 nM | 4 nM |  |
| COc1cc(NCCCCCCN2C[C@H](O)[C@@H](O)[C@H](O)[C@H]2CO)cc(C2=CCCCC2)c1 [Compound 1149, (2R,3R,4R,5S)-1-(6-{[3-(cyclohex-1-en-1-yl)-5-methoxy-phenyl]amino}hexyl)-2-(hydroxymethyl)piperidine-3,4,5-triol] | 56 nM | < 1 nM |  |
| COc1cc(C#N)cc(NCCc2ccc(CCN3C[C@H](O)[C@@H](O)[C@H](O)[C@H]3CO)cc2)c1 [Compound 1133, 3-methoxy-5-{[2-(4-{2-[(2R,3R,4R,5S)-3,4,5-trihydroxy-2-(hydroxymethyl)piperidin-1-yl]ethyl}phenyl)ethyl]amino}benzonitrile] | 4500 nM | 5 nM |  |
| OC[C@@H]1[C@@H](O)[C@H](O)[C@@H](O)CN1CCc1ccc(CCNc2cc(Cl)cc(C3=CCOCC3)c2)cc1 [Compound 1160, (2R,3R,4R,5S)-1-{2-[4-(2-{[3-chloro-5-(3,6-dihydro-2H-pyran-4-yl)phenyl]amino}ethyl)phenyl]ethyl}-2-(hydroxymethyl)piperidine-3,4,5-triol] | 1860 nM |  |  |

— patent publication US20250197372A1 (priority 2020, published 2025)
